Measurements reported in patent US20240368173A1, “TRICYCLIC GPR65 MODULATORS” (PATHIOS THERAPEUTICS LIMITED, priority 2021, published 2024).

Target: human recombinant GPR65 (Homo sapiens, UniProt Q8IYL9)
Assay: Human GPR65 cAMP HTRF antagonist assay
Format: cell-based
Details: not given
How it was run: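 1321N1 astrocytoma cells stably expressing hrGPR65, with IBMX and EDTA, were preincubated with compound 30 min at room temperature, then acid-activated at assay pH 7.2 (control pH 7.9) for 30 min. cAMP read by HTRF (665/620 nm ratio); IC50 from 4-parameter fit normalised to high/low controls.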

human recombinant GPR65, sequence (Q8IYL9 whole entry): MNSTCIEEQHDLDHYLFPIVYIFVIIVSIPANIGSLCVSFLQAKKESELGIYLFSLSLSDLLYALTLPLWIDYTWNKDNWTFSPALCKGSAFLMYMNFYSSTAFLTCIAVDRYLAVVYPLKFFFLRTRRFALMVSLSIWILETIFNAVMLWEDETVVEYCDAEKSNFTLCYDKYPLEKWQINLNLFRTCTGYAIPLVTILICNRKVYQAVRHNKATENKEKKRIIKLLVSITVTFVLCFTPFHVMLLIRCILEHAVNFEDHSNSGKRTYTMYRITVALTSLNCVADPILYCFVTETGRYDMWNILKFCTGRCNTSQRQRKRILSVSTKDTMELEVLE

Question: For `COc1ccc(-c2cc(F)c(NC(=O)N3[C@H]4CC[C@@H]3c3n[nH]c(=O)cc3C4)cc2Cl)c(F)n1` [Compound 202, (6S,9R)-N-(5-Chloro-2-fluoro-4-(2-fluoro-6-methoxypyridin-3-yl)phenyl)-3-oxo-3,5,6,7,8,9-hexahydro-2H-6,9-epiminocyclohepta[c]pyridazine-10-carboxamide], which IC50 is on record?
Answer: The IC50 was < 500 nM.

Question: For `Cc1nc2ccc(-c3cc(F)c(NC(=O)N4[C@H]5CC[C@@H]4c4ccnc(F)c4C5)cc3Cl)cc2o1` [Compound 205, (5R,8S)-N-(5-Chloro-2-fluoro-4-(2-methylbenzo[d]oxazol-6-yl)phenyl)-1-fluoro-6,7,8,9-tetrahydro-5H-5,8-epiminocyclohepta[c]pyridine-10-carboxamide], which IC50 is on record?
Answer: The IC50 was < 500 nM.

Question: Which IC50 does the source give for `Cc1nc2ccc(-c3cc(F)c(NC(=O)N4[C@H]5CC[C@@H]4c4c[nH]c(=O)cc4C5)cc3Cl)cc2o1` [Compound 206, (6S,9R)-N-(5-Chloro-2-fluoro-4-(2-methylbenzo[d]oxazol-6-yl)phenyl)-3-oxo-3,5,6,7,8,9-hexahydro-2H-6,9-epiminocyclohepta[c]pyridine-10-carboxamide] here?
Answer: The IC50 was < 500 nM.

Question: `COc1ncc(-c2cc(F)c(NC(=O)N3[C@H]4CC[C@@H]3c3n[nH]c(=O)cc3C4)cc2Cl)cc1F` [Compound 207, (6S,9R)-N-(5-Chloro-2-fluoro-4-(5-fluoro-6-methoxypyridin-3-yl)phenyl)-3-oxo-3,5,6,7,8,9-hexahydro-2H-6,9-epiminocyclohepta[c]pyridazine-10-carboxamide] was tested. Which IC50 did it give?
Answer: The IC50 was < 500 nM.

Question: How did the IC50 turn out when `CCOc1ccc(-c2cc(F)c(NC(=O)N3[C@H]4CC[C@@H]3c3n[nH]c(=O)cc3C4)cc2Cl)cn1` [Compound 208, (6S,9R)-N-(5-Chloro-4-(6-ethoxypyridin-3-yl)-2-fluorophenyl)-3-oxo-3,5,6,7,8,9-hexahydro-2H-6,9-epiminocyclohepta[c]pyridazine-10-carboxamide] was run?
Answer: The IC50 was < 500 nM.

Question: `CC(C)Oc1ccc(-c2cc(F)c(NC(=O)N3[C@H]4CC[C@@H]3c3n[nH]c(=O)cc3C4)cc2Cl)cn1` [Compound 209, (6S,9R)-N-(5-Chloro-2-fluoro-4-(6-isopropoxypyridin-3-yl)phenyl)-3-oxo-3,5,6,7,8,9-hexahydro-2H-6,9-epiminocyclohepta[c]pyridazine-10-carboxamide] was tested. Which IC50 did it give?
Answer: Its IC50 is < 500 nM.

Question: How did the IC50 turn out when `O=C(Nc1cc(Cl)c(-c2cccc3nonc23)cc1F)N1[C@H]2CC[C@@H]1c1n[nH]c(=O)cc1C2` [Compound 210, (6S,9R)-N-(4-(Benzo[c][1,2,5]oxadiazol-4-yl)-5-chloro-2-fluorophenyl)-3-oxo-3,5,6,7,8,9-hexahydro-2H-6,9-epiminocyclohepta[c]pyridazine-10-carboxamide] was run?
Answer: The IC50 was < 500 nM.

Question: `COc1ccc(-c2cc(F)c(NC(=O)N3[C@H]4CC[C@@H]3c3n[nH]c(=O)cc3C4)cc2Cl)nc1` [Compound 211, (6S,9R)-N-(5-Chloro-2-fluoro-4-(5-methoxypyridin-2-yl)phenyl)-3-oxo-3,5,6,7,8,9-hexahydro-2H-6,9-epiminocyclohepta[c]pyridazine-10-carboxamide] was tested. Which IC50 did it give?
Answer: Its IC50 is < 500 nM.

Question: Which IC50 does the source give for `O=C(Nc1cc(C(F)(F)F)c(-c2ccc(F)nc2)cc1F)N1[C@H]2CC[C@@H]1c1n[nH]c(=O)cc1C2` [Compound 212, (6S,9R)-N-(2-Fluoro-4-(6-fluoropyridin-3-yl)-5-(trifluoromethyl)phenyl)-3-oxo-3,5,6,7,8,9-hexahydro-2H-6,9-epiminocyclohepta[c]pyridazine-10-carboxamide] here?
Answer: The IC50 was < 500 nM.

Question: Which IC50 does the source give for `COc1ccc(-c2cc(F)c(NC(=O)N3[C@H]4CC[C@@H]3c3n[nH]c(=O)cc3C4)cc2C(F)(F)F)cn1` [Compound 213, (6S,9R)-N-(2-Fluoro-4-(6-methoxypyridin-3-yl)-5-(trifluoromethyl)phenyl)-3-oxo-3,5,6,7,8,9-hexahydro-2H-6,9-epiminocyclohepta[c]pyridazine-10-carboxamide] here?
Answer: The IC50 was < 500 nM.

Question: How did the IC50 turn out when `COc1ccc(-c2cc(F)c(NC(=O)N3[C@H]4CC[C@@H]3c3ccnc(F)c3C4)cc2Cl)c(F)n1` [Compound 214, (5R,8S)-N-(5-Chloro-2-fluoro-4-(2-fluoro-6-methoxypyridin-3-yl)phenyl)-1-fluoro-6,7,8,9-tetrahydro-5H-5,8-epiminocyclohepta[c]pyridine-10-carboxamide] was run?
Answer: The IC50 was < 500 nM.

Question: `O=C(Nc1cc(Cl)c(-c2ccc(OCC(F)(F)F)nc2)cc1F)N1[C@H]2CC[C@@H]1c1n[nH]c(=O)cc1C2` [Compound 215, (6S,9R)-N-(5-Chloro-2-fluoro-4-(6-(2,2,2-trifluoroethoxy)pyridin-3-yl)phenyl)-3-oxo-3,5,6,7,8,9-hexahydro-2H-6,9-epiminocyclohepta[c]pyridazine-10-carboxamide] was tested. Which IC50 did it give?
Answer: The IC50 was < 500 nM.

Question: How did the IC50 turn out when `O=C(Nc1cc(Cl)c(-c2ccc(OC3CCC3)nc2)cc1F)N1[C@H]2CC[C@@H]1c1n[nH]c(=O)cc1C2` [Compound 216, (6S,9R)-N-(5-Chloro-4-(6-cyclobutoxypyridin-3-yl)-2-fluorophenyl)-3-oxo-3,5,6,7,8,9-hexahydro-2H-6,9-epiminocyclohepta[c]pyridazine-10-carboxamide] was run?
Answer: Its IC50 is < 500 nM.

Question: With `COc1ncc(-c2cc(F)c(NC(=O)N3[C@H]4CC[C@@H]3c3c[nH]c(=O)cc3C4)cc2Cl)cc1F` [Compound 217, (6S,9R)-N-(5-Chloro-2-fluoro-4-(5-fluoro-6-methoxypyridin-3-yl)phenyl)-3-oxo-3,5,6,7,8,9-hexahydro-2H-6,9-epiminocyclohepta[c]pyridine-10-carboxamide] as the compound, how does the IC50 read?
Answer: Its IC50 is < 500 nM.

Question: Which IC50 does the source give for `CC(C)Oc1cc(-c2cc(F)c(NC(=O)N3[C@H]4CC[C@@H]3c3n[nH]c(=O)cc3C4)cc2Cl)ccn1` [Compound 218, (6S,9R)-N-(5-Chloro-2-fluoro-4-(2-isopropoxypyridin-4-yl)phenyl)-3-oxo-3,5,6,7,8,9-hexahydro-2H-6,9-epiminocyclohepta[c]pyridazine-10-carboxamide] here?
Answer: The IC50 was < 500 nM.

Question: `COc1ncc(-c2cc(F)c(NC(=O)N3[C@H]4CC[C@@H]3c3ccnc(F)c3C4)cc2Cl)cc1F` [Compound 219, (5R,8S)-N-(5-Chloro-2-fluoro-4-(5-fluoro-6-methoxypyridin-3-yl)phenyl)-1-fluoro-6,7,8,9-tetrahydro-5H-5,8-epiminocyclohepta[c]pyridine-10-carboxamide] was tested. Which IC50 did it give?
Answer: The IC50 was < 500 nM.

Question: With `O=C(Nc1cc(Cl)c(-c2ccc(OCCN3CCCCC3)nc2)cc1F)N1[C@H]2CC[C@@H]1c1ccnc(F)c1C2` [Compound 220, (5R,8S)-N-(5-Chloro-2-fluoro-4-(6-(2-(piperidin-1-yl)ethoxy)pyridin-3-yl)phenyl)-1-fluoro-6,7,8,9-tetrahydro-5H-5,8-epiminocyclohepta[c]pyridine-10-carboxamide] as the compound, how does the IC50 read?
Answer: Its IC50 is < 500 nM.

Question: Which IC50 does the source give for `O=C(Nc1cc(Cl)c(-c2ccc(OC3CC3)nc2)cc1F)N1[C@H]2CC[C@@H]1c1n[nH]c(=O)cc1C2` [Compound 221, (6S,9R)-N-(5-Chloro-4-(6-cyclopropoxypyridin-3-yl)-2-fluorophenyl)-3-oxo-3,5,6,7,8,9-hexahydro-2H-6,9-epiminocyclohepta[c]pyridazine-10-carboxamide] here?
Answer: Its IC50 is < 500 nM.

Same assay, conditions: 1321N1-hrGPR65 cells, cAMP HTRF, assay pH 7.2; read-out: hGPR65 IC50 (Activity of selected compounds according to the invention)

Question: `CS(=O)(=O)NCc1cccc(-c2cc(F)c(NC(=O)N3[C@H]4CC[C@@H]3c3n[nH]c(=O)cc3C4)cc2Cl)c1` [Compound 203, (6S,9R)-N-(2-Chloro-5-fluoro-3′-(methylsulfonamidomethyl)-[1,1′-biphenyl]-4-yl)-3-oxo-3,5,6,7,8,9-hexahydro-2H-6,9-epiminocyclohepta[c]pyridazine-10-carboxamide] was tested. Which IC50 did it give?
Answer: Its IC50 is 500 to 5000 nM.
